The NIST ThermoML archive (doi:10.1016/j.jct.2007.10.010)
Where “and” joins values, the source holds several entries; their conditions need not be identical. Identical values can stand only once. Numbers after ± are expanded uncertainties.

How the values were obtained:
[1] = refractive index (Na D-line) (dimensionless); conditions: 298.15 K; 101.33 kPa; Liquid; Standard Abbe refractometry
[2] = 101 kPa, Liquid
[3] = xn = mol fraction of the nth substance listed; conditions: 101 kPa, Liquid

CCCCCCCC [octane]
Conditions	refractive index
[1]	1.395 ± 0.0007

[2]
Conditions	mass density
298.15 K	698.62 ± 0.62 kg/m3 [middle of 4 runs]
308.15 K	690.44 ± 0.63 kg/m3 and 690.43 ± 0.63 kg/m3 and 690.45 ± 0.63 kg/m3
318.15 K	682.47 ± 0.64 kg/m3 and 682.49 ± 0.64 kg/m3
328.15 K	674.55 ± 0.66 kg/m3 and 674.56 ± 0.66 kg/m3 and 674.54 ± 0.66 kg/m3

CCCCCCCC [octane] + Cc1cc(C)cc(C)c1
[3], x1 = 1
Conditions	mass density [kg/m3]
298.15 K	698.62 ± 0.62
308.15 K	690.45 ± 0.63
318.15 K	682.49 ± 0.64
328.15 K	674.54 ± 0.66

CCCCCCCC [octane] + Cc1cccc(C)c1
[3], x1 = 1
Conditions	mass density [kg/m3]
298.15 K	698.63 ± 0.62
308.15 K	690.43 ± 0.63
318.15 K	682.49 ± 0.64
328.15 K	674.56 ± 0.66

CCCCCCCC [octane] + Cc1ccccc1
mass density [kg/m3], [3]
Conditions	298.15 K	308.15 K	318.15 K	328.15 K
x1 = 0.0654	845.89 ± 0.37	836.6 ± 0.38	–	–
x1 = 0.0675	–	–	826.95 ± 0.4	817.77 ± 0.41
x1 = 0.1229	–	–	814.22 ± 0.42	805.12 ± 0.43
x1 = 0.1283	831.23 ± 0.39	822.06 ± 0.41	–	–
x1 = 0.1979	816.17 ± 0.42	807.1 ± 0.43	–	–
x1 = 0.2052	–	–	796.69 ± 0.45	787.73 ± 0.46
x1 = 0.2524	805.13 ± 0.43	796.14 ± 0.45	–	–
x1 = 0.2613	–	–	785.56 ± 0.47	776.68 ± 0.48
x1 = 0.312	793.74 ± 0.45	784.82 ± 0.47	–	–
x1 = 0.3142	–	–	775.67 ± 0.48	766.87 ± 0.5
x1 = 0.3931	779.27 ± 0.48	770.46 ± 0.49	–	–
x1 = 0.398	–	–	761 ± 0.51	752.32 ± 0.52
x1 = 0.4544	769.05 ± 0.5	760.31 ± 0.51	–	–
x1 = 0.4553	–	–	751.61 ± 0.52	743.01 ± 0.54
x1 = 0.5388	–	–	738.82 ± 0.54	730.32 ± 0.56
x1 = 0.5409	755.59 ± 0.52	746.93 ± 0.53	–	–
x1 = 0.6029	746.56 ± 0.53	737.98 ± 0.55	–	–
x1 = 0.6078	–	–	728.94 ± 0.56	720.55 ± 0.57
x1 = 0.6679	–	–	720.81 ± 0.57	712.48 ± 0.59
x1 = 0.6717	737.09 ± 0.55	728.58 ± 0.56	–	–
x1 = 0.7202	730.75 ± 0.56	722.3 ± 0.57	–	–
x1 = 0.7262	–	–	713.32 ± 0.59	705.06 ± 0.6
x1 = 0.7985	–	–	704.51 ± 0.6	696.33 ± 0.62
x1 = 0.8064	720.08 ± 0.58	711.7 ± 0.59	–	–
x1 = 0.863	–	–	697.07 ± 0.62	688.97 ± 0.63
x1 = 0.8727	712.36 ± 0.59	704.05 ± 0.61	–	–
x1 = 0.9143	–	–	691.43 ± 0.63	683.39 ± 0.64
x1 = 0.9312	705.88 ± 0.61	697.62 ± 0.62	–	–
x1 = 1	698.61 ± 0.62	690.44 ± 0.63	682.49 ± 0.64	674.55 ± 0.66

CCCCCCCC [octane] + c1ccccc1
[3]
Conditions	mass density [kg/m3]
298.15 K, x1 = 0.06831	850.82 ± 0.37
298.15 K, x1 = 0.1358	831.14 ± 0.4
298.15 K, x1 = 0.2041	813.51 ± 0.43
298.15 K, x1 = 0.2616	800.23 ± 0.45
298.15 K, x1 = 0.3322	785.49 ± 0.48
298.15 K, x1 = 0.3912	774.33 ± 0.49
298.15 K, x1 = 0.4581	762.82 ± 0.51
298.15 K, x1 = 0.5388	750.32 ± 0.53
298.15 K, x1 = 0.6054	740.95 ± 0.55
298.15 K, x1 = 0.664	733.37 ± 0.56
298.15 K, x1 = 0.7116	727.59 ± 0.57
298.15 K, x1 = 0.7979	717.91 ± 0.59
298.15 K, x1 = 0.8682	710.7 ± 0.6
298.15 K, x1 = 0.9264	705.15 ± 0.61
298.15 K, x1 = 1	698.6 ± 0.62
308.15 K, x1 = 0.06734	840.85 ± 0.39
308.15 K, x1 = 0.1335	821.8 ± 0.42
308.15 K, x1 = 0.1989	804.98 ± 0.44
308.15 K, x1 = 0.2562	791.81 ± 0.47
308.15 K, x1 = 0.3283	776.91 ± 0.49
308.15 K, x1 = 0.3888	765.56 ± 0.51
308.15 K, x1 = 0.4682	752.18 ± 0.53
308.15 K, x1 = 0.5284	742.95 ± 0.54
308.15 K, x1 = 0.5971	733.35 ± 0.56
308.15 K, x1 = 0.6592	725.32 ± 0.57
308.15 K, x1 = 0.7248	717.54 ± 0.59
308.15 K, x1 = 0.8156	707.74 ± 0.6
308.15 K, x1 = 0.8852	700.86 ± 0.61
308.15 K, x1 = 0.9515	694.77 ± 0.62
308.15 K, x1 = 1	690.44 ± 0.63
318.15 K, x1 = 0.06734	830.41 ± 0.4
318.15 K, x1 = 0.1335	811.7 ± 0.43
318.15 K, x1 = 0.1932	796.52 ± 0.46
318.15 K, x1 = 0.2511	783.28 ± 0.48
318.15 K, x1 = 0.3289	767.43 ± 0.5
318.15 K, x1 = 0.3937	755.54 ± 0.52
318.15 K, x1 = 0.4681	743.19 ± 0.54
318.15 K, x1 = 0.5302	733.8 ± 0.56
318.15 K, x1 = 0.5866	726.02 ± 0.57
318.15 K, x1 = 0.6709	715.36 ± 0.59
318.15 K, x1 = 0.7248	709.07 ± 0.6
318.15 K, x1 = 0.8156	699.39 ± 0.62
318.15 K, x1 = 0.8852	692.61 ± 0.63
318.15 K, x1 = 0.9515	686.61 ± 0.64
318.15 K, x1 = 1	682.47 ± 0.64
328.15 K, x1 = 0.06734	820.09 ± 0.42
328.15 K, x1 = 0.1335	801.67 ± 0.45
328.15 K, x1 = 0.1932	786.83 ± 0.47
328.15 K, x1 = 0.2511	773.79 ± 0.49
328.15 K, x1 = 0.3289	758.15 ± 0.52
328.15 K, x1 = 0.3937	746.47 ± 0.54
328.15 K, x1 = 0.4681	734.35 ± 0.56
328.15 K, x1 = 0.5302	725.13 ± 0.57
328.15 K, x1 = 0.5866	717.46 ± 0.58
328.15 K, x1 = 0.6709	706.93 ± 0.6
328.15 K, x1 = 0.7248	700.75 ± 0.61
328.15 K, x1 = 0.8156	691.2 ± 0.63
328.15 K, x1 = 0.8852	684.52 ± 0.64
328.15 K, x1 = 0.9515	678.62 ± 0.65
328.15 K, x1 = 1	674.54 ± 0.66

Cc1ccccc1 [toluene]
Conditions	refractive index
[1]	1.4941 ± 0.0007

[2]
Conditions	mass density [kg/m3]
298.15 K	862.29 ± 0.34
308.15 K	852.86 ± 0.36
318.15 K	843.6 ± 0.37
328.15 K	834.29 ± 0.39

Cc1ccccc1 [toluene] + CCCCCCCC
[3], x2 = 0
Conditions	mass density [kg/m3]
298.15 K	862.29 ± 0.34
308.15 K	852.86 ± 0.36
318.15 K	843.6 ± 0.37
328.15 K	834.29 ± 0.39
